Reference: patent publication US9708628B2, “Cationic lipid having improved intracellular kinetics” (NOF CORPORATION, priority 2011, dated 2017)

Experiments:
[1] = Particle size and surface potential of siRNA MENDs prepared by t-BuOH injecting method; assay type: physicochemical; details: siRNA MEND, cationic lipid/cholesterol=70/30, DMG-PEG2000 3%
Method: (§1) A lipid solution in t-BuOH with a composition of cationic lipid/cholesterol=70/30, DMG-PEG2000 3% and a total lipid amount of 3000 nmol/400 μL (7.5 mM) was prepared in a 1.7 mL tube. In a separate 1.7 mL tube, an siRNA solution was prepared by mixing an siRNA aqueous solution containing siRNA (160 μg) and 20 mM malate buffer (pH 4.00, 30 mM NaCl) to total 50 μL. With vigorous stirring of the lipid solution, the siRNA solution was gradually added dropwise, and the mixed solution was taken in a 1 mL syringe. Then, 20 mM malate buffer (pH 4.00, 30 mM NaCl, 2 mL) was added into a 5 mL tube, and the mixed solution was gradually injected with vigorous stirring. Thereafter, the mixture was further diluted with PBS (7 mL) and centrifuged at 1000 g, 30° C. for 10 min in Amicon Ultra-15-100K to a volume of less than 1.5 mL. PBS (15 mL) was added, and the solution was centrifuged again to about 500-1000 μL. Finally, the MEND solution was adjusted by diluting with PBS to the object lipid concentration.
The particle size and surface potential of various MENDs were measured according to the method described in [Experimental Example 2] and the results are shown in Table 6.

Factor VII (FVII) [2] = test: Knockdown effect of siRNA-encapsulated MEND prepared by t-BuOH injecting method; assay type: in vivo, ICR mice; details: varying doses of siRNA, tail vein
Method: A MEND solution prepared by the method shown in [Experimental Example 28] was administered to 4-week-old male ICR mice at 3 mg siRNA/kg from the tail vein, and blood was collected 24 hr later. This blood sample was centrifuged at 1000 g, 10 min, 4° C., and the supernatant was recovered to obtain plasma. The amount of Factor VII (FVII) in the plasma was quantified by BIOPHEN FVII CHROMOGENIC ASSAY (HYPHEN BioMed).
as §1
MENDs prepared by the method shown in Experimental Example 32 were administered by a method similar to the method shown in Experimental Example 30 with varying doses of siRNA, and the knockdown effect was evaluated. The results are shown in FIG. 35, FIG. 36, and FIG. 37.

Factor VII (FVII) [3] = test: Knockdown effect of chemically-modified siRNA-encapsulated MEND; assay type: in vivo, ICR mice
Method: A MEND (Lipid/siRNA ratio=250) prepared using the compound of Example 13 and by the method shown in Experimental Example 32, and a MEND having the ratio of lipid and siRNA of Lipid/siRNA ratio=2250 were prepared. Furthermore, of Lipid/siRNA ratio=2250, MENDs wherein siRNA was replaced by chemically-modified one (2′-F) were prepared, and the knockdown effect was evaluated by the method shown in Experimental Example 33.

Cc1c(C)c2c(c(C)c1OC(=O)CCC(=O)OCCCCC1CCN(CCSSCCN3CCC(CCCCOC(=O)CCC(=O)Oc4c(C)c(C)c5c(c4C)CCC(C)(CCCC(C)CCCC(C)CCCC(C)C)O5)CC3)CC1)CCC(C)(CCCC(C)CCCC(C)CCCC(C)C)O2 (stereo not drawn) [TS-P4C4]
PDI [1]: 0.11 | size (nm) [1]: 123 nm | zeta (mV) [1]: −6.9 mV | FVII expression level (knockdown effect) (Factor VII (FVII) [2]): highest knockdown effect | knockdown effect with chemically-modified siRNA (2′-F) (Factor VII (FVII) [3]; Lipid/siRNA ratio=2250): further enhanced the knockdown effect | knockdown effect, Lipid/siRNA ratio 2250 versus 250 (Factor VII (FVII) [3]; unmodified siRNA): knockdown effect was enhanced
